Experimental data from patent US8476283B2, “[6,5]—bicyclic GPR119 G protein-coupled receptor agonists” (Bristol-Myers Squibb Company, priority 2007, dated 2013).
pEC50: −log10 of the molar value.

Target: T1, GPR119 (Homo sapiens, UniProt Q8TDV5)
T1 construct: expressed in transfected cells; host or cells: Flp-In-T-REx 293
T1 sequence (Q8TDV5 1-335): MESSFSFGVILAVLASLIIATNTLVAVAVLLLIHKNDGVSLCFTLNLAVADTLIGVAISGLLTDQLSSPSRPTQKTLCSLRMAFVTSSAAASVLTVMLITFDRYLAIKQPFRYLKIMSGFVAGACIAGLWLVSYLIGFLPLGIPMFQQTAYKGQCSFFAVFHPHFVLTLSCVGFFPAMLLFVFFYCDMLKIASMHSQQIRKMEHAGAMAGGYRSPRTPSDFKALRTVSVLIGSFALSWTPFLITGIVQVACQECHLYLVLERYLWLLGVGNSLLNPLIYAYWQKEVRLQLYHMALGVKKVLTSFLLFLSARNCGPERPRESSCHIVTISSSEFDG
Assay: Human Tet-Inducible cAMP Assay (hEC50, Table 1)
Type: cell-based
Set-up: IA: scale not given here
Settings: for IA: IA as printed beside hEC50 (not defined in the text); for pEC50: human GPR119 agonist activity, cAMP
Procedure: The in vitro modulation of GPR119 was determined as follows.
Human Tet-Inducible cAMP Assay
Cell lines using the Flp-In-T-REx 293 tetracycline inducible gene expression system are cultured in culture medium comprising the following components: DMEM#11965, 10% FBS, 2 mM L-glutamine, 200 ug/ml Hygromycin B, and 15 ug/ml blasticidin.
For cAMP assays, cells are plated on 96 well plates (e.g., BD Falcon: REF 353948, black side, clear bottom, TC surface) at a density of about 4.5×10^4 cells per well in growth medium containing 1.0 ug/ml tetracycline (1.0 mg/ml stock). The cells are then incubated for 48 hours at 37° C.
Following the incubation, the growth medium is removed from the wells and the wells rinsed (once) with the assay buffer included in the Hit Hunter cAMP kit (100 μl/well). Following the wash, 20 μl of assay buffer is added to each well, followed by addition of 10 μl of a 3× concentration compound working solution. The solution is then mixed. The final concentration range of compound is from about 10^−5M to about 10^−11M. The reagents are then incubated at 37° C. at 5% CO2 for 1 hour.
The manufacturer's protocol may be followed for cAMP determination. The Hit Hunter cAMP kit protocol is outlined for the HIT-T15 cAMP assays described above.

SMILES	IA	pEC50
CC(C)(C)OC(=O)N1CCC(n2nnc3c(Nc4ccc(S(C)(=O)=O)cc4F)nccc32)CC1 [Example 1, tert-Butyl 4-(4-(2-fluoro-4-(methylsulfonyl)phenylamino)-1H-[1,2,3]triazolo[4,5-c]pyridin-1-yl)piperidine-1-carboxylate]	0.55	5.86
CC(C)(C)OC(=O)N1CCC(n2nnc3c(Oc4ccc(S(C)(=O)=O)cc4)nccc32)CC1 [Example 2, tert-Butyl 4-(4-(4-(methylsulfonyl)phenoxy)-1H-[1,2,3]triazolo[4,5-c]pyridin-1-yl)piperidine-1-carboxylate]	0.29	5.45
CC(C)(C)OC(=O)N1CCC(n2nnc3c(Nc4ccc(S(C)(=O)=O)cc4F)ncnc32)CC1 [Example 3, tert-Butyl 4-(7-(2-fluoro-4-(methylsulfonyl)phenylamino)-3H-[1,2,3]triazolo[4,5-d]pyrimidin-3-yl)piperidine-1-carboxylate]		7.71
CC(C)(C)OC(=O)N1CCC(n2cnc3c(Nc4ccc(C#N)cc4F)ncnc32)CC1 [Example 4, tert-Butyl 4-(6-(4-cyano-2-fluorophenylamino)-9H-purin-9-yl)piperidine-1-carboxylate]	0.70	6.54
CC(C)(C)OC(=O)N1CCC(n2nnc3c(Nc4ccc(C#N)cc4Cl)nccc32)CC1 [Example 5, tert-Butyl 4-(4-(2-chloro-4-cyanophenylamino)-1H-[1,2,3]triazolo[4,5-c]pyridin-1-yl)piperidine-1-carboxylate]	0.27	6.39
CC(C)OC(=O)N1CCC(n2nnc3c(Nc4ccc(S(C)(=O)=O)cc4F)ncnc32)CC1 [Example 6, iso-Propyl 4-(7-(2-fluoro-4-(methylsulfonyl)phenylamino)-3H-[1,2,3]triazolo[4,5-d]pyrimidin-3-yl)piperidine-1-carboxylate]	0.86	6.86
CC(C)OC(=O)N1CCC(n2nnc3c(Nc4ccc(S(C)(=O)=O)cc4Cl)ncnc32)CC1 [Example 7, iso-Propyl 4-(7-(2-chloro-4-(methylsulfonyl)phenylamino)-3H-[1,2,3]triazolo[4,5-d]pyrimidin-3-yl)piperidine-1-carboxylate]	0.68	7.13
CS(=O)(=O)c1ccc(Nc2ncnc3c2nnn3C2CCN(c3ncccn3)CC2)c(F)c1 [Example 8, N-(2-Fluoro-4-(methylsulfonyl)phenyl)-3-(1-(pyrimidin-2-yl)piperidin-4-yl)-3H-[1,2,3]triazolo[4,5-d]pyrimidin-7-amine]	0.67	6.66
CCc1cnc(N2CCC(n3nnc4c(Nc5ccc(S(C)(=O)=O)cc5F)ncnc43)CC2)nc1 [Example 9, 3-(1-(5-Ethylpyrimidin-2-yl)piperidin-4-yl)-N-(2-fluoro-4-(methylsulfonyl)phenyl)-3H-[1,2,3]triazolo[4,5-d]pyrimidin-7-amine]	0.56	6.58
CC(C)OC(=O)N1CCC(n2cnc3c(Nc4ccc(S(C)(=O)=O)cc4F)ncnc32)CC1 [Example 10, iso-Propyl 4-(6-(2-fluoro-4-(methylsulfonyl)phenylamino)-9H-purin-9-yl)piperidine-1-carboxylate]	0.79	6.39
CS(=O)(=O)c1ccc(Nc2ncnc3c2ncn3C2CCN(c3ncccn3)CC2)c(F)c1 [Example 11, N-(2-Fluoro-4-(methylsulfonyl)phenyl)-9-(1-(pyrimidin-2-yl)piperidin-4-yl)-9H-purin-6-amine]	0.81	6.44
CS(=O)(=O)c1ccc(Nc2ncnc3c2cnn3C2CCN(C(=O)OCc3ccccc3)CC2)c(F)c1 [Example 12, Benzyl 4-(4-(2-fluoro-4-(methylsulfonyl)phenylamino)-1H-pyrazolo[3,4-d]pyrimidin-1-yl)piperidine-1-carboxylate]	0.47	6.69
CC(C)OC(=O)N1CCC(n2ncc3c(Nc4ccc(S(C)(=O)=O)cc4F)ncnc32)CC1 [Example 13, Isopropyl 4-(4-(2-fluoro-4-(methylsulfonyl)phenylamino)-1H-pyrazolo[3,4-d]pyrimidin-1-yl)piperidine-1-carboxylate]	0.69	6.51
CS(=O)(=O)c1ccc(Nc2ncnc3c2cnn3C2CCN(c3ncccn3)CC2)c(F)c1 [Example 14, N-(2-Fluoro-4-(methylsulfonyl)phenyl)-1-(1-(pyrimidin-2-yl)piperidin-4-yl)-1H-pyrazolo[3,4-d]pyrimidin-4-amine]	0.76	6.26
CCc1cnc(N2CCC(n3ncc4c(Nc5ccc(S(C)(=O)=O)cc5F)ncnc43)CC2)nc1 [Example 15, 1-(1-(5-Ethylpyrimidin-2-yl)piperidin-4-yl)-N-(2-fluoro-4-(methylsulfonyl)phenyl)-1H-pyrazolo[3,4-d]pyrimidin-4-amine]	0.94	7.12
CCCc1cnc(N2CCC(n3ncc4c(Nc5ccc(S(C)(=O)=O)cc5F)ncnc43)CC2)nc1 [Example 16, N-(2-Fluoro-4-(methylsulfonyl)phenyl)-1-(1-(5-propylpyrimidin-2-yl)piperidin-4-yl)-1H-pyrazolo[3,4-d]pyrimidin-4-amine]	1.11	7.09
Cc1ncccc1Oc1ncnc2c1cnn2C1CCN(C(=O)OCc2ccccc2)CC1.Cl [Example 17, Benzyl 4-(4-(2-methylpyridin-3-yloxy)-1H-pyrazolo[3,4-d]pyrimidin-1-yl)piperidine-1-carboxylate, hydrochloride salt]	0.31	5.72
Cc1ncccc1Oc1ncnc2c1cnn2C1CCN(C(=O)OC(C)C)CC1.Cl [Example 18, Isopropyl 4-(4-(2-methylpyridin-3-yloxy)-1H-pyrazolo[3,4-d]pyrimidin-1-yl)piperidine-1-carboxylate, hydrochloride salt]	0.17	5.57
CC(C)OC(=O)N1CCC(n2ncc3c(Oc4cccnc4C#N)ncnc32)CC1 [Example 19, Isopropyl 4-(4-(2-cyanopyridin-3-yloxy)-1H-pyrazolo[3,4-d]pyrimidin-1-yl)piperidine-1-carboxylate]	0.13	6.30
